From ChEMBL document CHEMBL2385072, “Development of oleanane-type triterpenes as a new class of HCV entry inhibitors” (J Med Chem, 2013)

Experiments:
Conditions in all cases: HEK-293T
Hepatitis C virus [1] = assay: Antiviral activity against pseudo HCV infected in human 293T cells assessed as inhibition of HCV pseudo particles entry at 1 uM after 72 hrs by luciferase reporter gene assay; type: functional, Hepacivirus hominis
[2] = tested on: Vesicular stomatitis virus; assay: Antiviral activity against pseudo VSV infected in human 293T cells assessed as inhibition of vesicular stromatis G protein pseudo particles entry at 5 uM after 72 hrs by luciferase reporter gene assay; type: functional
[3] = tested on: Vesicular stomatitis virus; assay: Antiviral activity against pseudo VSV infected in human 293T cells assessed as inhibition of vesicular stromatis G protein pseudo particles entry at 1 uM after 72 hrs by luciferase reporter gene assay; type: functional
Hepatitis C virus [4] = assay: Antiviral activity against pseudo HCV infected in human 293T cells assessed as inhibition of HCV pseudo particles entry at 5 uM after 72 hrs by luciferase reporter gene assay; type: functional, Hepacivirus hominis

COC(=O)[C@]12CCC(C)(C)C[C@H]1C1=CC[C@@H]3[C@@]4(C)CC[C@H](OC)C(C)(C)[C@@H]4CC[C@@]3(C)[C@]1(C)C[C@H]2OC gave an inhibition at 1 µM (Hepatitis C virus [1]) of 1.7%, an inhibition at 5 µM [2] of 14.2% and an inhibition at 1 µM [3] of 8.5%. For the same compound, the inhibition at 5 µM (Hepatitis C virus [4]) was 7.9%.
Compound CC1(C)CC[C@]2(C(=O)NCc3cn(CCNC(=O)CCCC[C@@H]4SC[C@@H]5NC(=O)N[C@@H]54)nn3)[C@H](O)C[C@]3(C)C(=CC[C@@H]4[C@@]5(C)CC[C@H](O)C(C)(C)[C@@H]5CC[C@]43C)[C@@H]2C1 has an inhibition at 1 µM (Hepatitis C virus [1]) of 34.2%, an inhibition at 5 µM [2] of 12% and an inhibition at 1 µM [3] of 10.3%. It also gave an inhibition at 5 µM (Hepatitis C virus [4]) of 76.7%.
Work on CC1(C)CC[C@]2(C(=O)NCc3cn([C@@H]4OC[C@@H](O)[C@H](O)[C@@H]4O)nn3)[C@H](O)C[C@]3(C)C(=CC[C@@H]4[C@@]5(C)CC[C@H](O)C(C)(C)[C@@H]5CC[C@]43C)[C@@H]2C1 yielded an inhibition at 1 µM (Hepatitis C virus [1]) of 20.3%, an inhibition at 5 µM [2] of 35.2% and an inhibition at 1 µM [3] of 7%. It also gave an inhibition at 5 µM (Hepatitis C virus [4]) of 43.2%.
In the case of CC(=O)OC[C@H]1O[C@@H](n2cc(CNC(=O)[C@]34CCC(C)(C)C[C@H]3C3=CC[C@@H]5[C@@]6(C)CC[C@H](O)C(C)(C)[C@@H]6CC[C@@]5(C)[C@]3(C)C[C@H]4O)nn2)[C@H](OC(C)=O)[C@@H](OC(C)=O)[C@@H]1OC(C)=O, the inhibition at 1 µM (Hepatitis C virus [1]) was 20.3%, the inhibition at 5 µM [2] was 12.5% and the inhibition at 1 µM [3] was -9.1%. It also gave an inhibition at 5 µM (Hepatitis C virus [4]) of 89.7%.
COC(=O)[C@]12CCC(C)(C)C[C@H]1C1=CC[C@@H]3[C@@]4(C)CC[C@H](OS(=O)(=O)c5ccc(C)cc5)C(C)(C)[C@@H]4CC[C@@]3(C)[C@]1(C)C[C@H]2O showed an inhibition at 1 µM (Hepatitis C virus [1]) of 12.3%, an inhibition at 5 µM [2] of 39.3% and an inhibition at 1 µM [3] of 38.3%. The inhibition at 5 µM (Hepatitis C virus [4]) was 16.4%.
For COC(=O)[C@]12CCC(C)(C)C[C@H]1C1=CC[C@@H]3[C@@]4(C)CC=CC(C)(C)[C@@H]4CC[C@@]3(C)[C@]1(C)C[C@H]2O, the inhibition at 1 µM (Hepatitis C virus [1]) was -3.3%, the inhibition at 5 µM [2] was 9.7% and the inhibition at 1 µM [3] was 7.6%. The inhibition at 5 µM (Hepatitis C virus [4]) was -8.9%.
COC(=O)[C@]12CCC(C)(C)C[C@H]1C1=CC[C@@H]3[C@@]4(C)CCC(=O)C(C)(C)[C@@H]4CC[C@@]3(C)[C@]1(C)CC2=O showed an inhibition at 1 µM (Hepatitis C virus [1]) of 48.2%, an inhibition at 5 µM [2] of -2.8% and an inhibition at 1 µM [3] of -10%. It also gave an inhibition at 5 µM (Hepatitis C virus [4]) of 70.1%.
In the case of CC1(C)CC[C@]2(C(=O)O)[C@H](O)C[C@]3(C)C(=CC[C@@H]4[C@@]5(C)CCC(N)C(C)(C)[C@@H]5CC[C@]43C)[C@@H]2C1 (stereo partly specified), the inhibition at 1 µM (Hepatitis C virus [1]) was 12.1%, the inhibition at 5 µM [2] was 28.4% and the inhibition at 1 µM [3] was 23.6%. It also gave an inhibition at 5 µM (Hepatitis C virus [4]) of 10.5%.
Compound COC(=O)[C@]12CCC(C)(C)C[C@H]1C1=CC[C@@H]3[C@@]4(C)CC[C@H](O)C(C)(C)[C@@H]4CC[C@@]3(C)[C@]1(C)C[C@H]2OCc1ccccc1 has an inhibition at 1 µM (Hepatitis C virus [1]) of 4.6%, an inhibition at 5 µM [2] of -3.9% and an inhibition at 1 µM [3] of 1.6%. For the same compound, the inhibition at 5 µM (Hepatitis C virus [4]) was 5.8%.
C[C@H]1O[C@@H](n2cc(CNC(=O)[C@]34CCC(C)(C)C[C@H]3C3=CC[C@@H]5[C@@]6(C)CC[C@H](O)C(C)(C)[C@@H]6CC[C@@]5(C)[C@]3(C)C[C@H]4O)nn2)[C@@H](O)[C@@H](O)[C@@H]1O was tested, and the inhibition at 1 µM (Hepatitis C virus [1]) was 32%, the inhibition at 5 µM [2] was 13.9% and the inhibition at 1 µM [3] was 7.7%. The inhibition at 5 µM (Hepatitis C virus [4]) was 67%.
In the case of CC(=O)OC[C@H]1O[C@@H](OC(=O)[C@]23CCC(C)(C)C[C@H]2C2=CC[C@@H]4[C@@]5(C)CC[C@H](O)C(C)(C)[C@@H]5CC[C@@]4(C)[C@]2(C)C[C@H]3O)[C@H](OC(C)=O)[C@@H](OC(C)=O)[C@@H]1OC(C)=O, the inhibition at 1 µM (Hepatitis C virus [1]) was 35.7%, the inhibition at 5 µM [2] was 13.9% and the inhibition at 1 µM [3] was 3.7%. For the same compound, the inhibition at 5 µM (Hepatitis C virus [4]) was 78.3%.
Compound COC(=O)[C@]12CCC(C)(C)C[C@H]1C1=CC[C@@H]3[C@@]4(C)CC[C@H](O[Si](C)(C)C(C)(C)C)C(C)(C)[C@@H]4CC[C@@]3(C)[C@]1(C)C[C@H]2O has an inhibition at 1 µM (Hepatitis C virus [1]) of 44.3%, an inhibition at 5 µM [2] of 37.4% and an inhibition at 1 µM [3] of 27.4%. The inhibition at 5 µM (Hepatitis C virus [4]) was 27.8%.
For COC(=O)[C@]12CCC(C)(C)C[C@H]1C1=CC[C@@H]3[C@@]4(C)CC[C@H](O)C(C)(C)[C@@H]4CC[C@@]3(C)[C@]1(C)C[C@H]2OC, the inhibition at 1 µM (Hepatitis C virus [1]) was 17.5%, the inhibition at 5 µM [2] was 9.9% and the inhibition at 1 µM [3] was 7.3%. For the same compound, the inhibition at 5 µM (Hepatitis C virus [4]) was 33.7%.
In the case of COC(=O)[C@]12CCC(C)(C)C[C@H]1[C@H]1C(O)C[C@@H]3[C@@]4(C)CC[C@H](O)C(C)(C)[C@@H]4CC[C@@]3(C)[C@]1(C)C[C@H]2O (stereo partly specified), the inhibition at 1 µM (Hepatitis C virus [1]) was 22.6%, the inhibition at 5 µM [2] was 43.5% and the inhibition at 1 µM [3] was 35.8%. The inhibition at 5 µM (Hepatitis C virus [4]) was 51%.
